PubChem BioAssay (NCI)
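Five compound concentrations were applied to cells in 96-well plates for 48 hours; endpoints were derived by simple linear interpolation of the resulting dose-response curve. TGI is the concentration that stops growth completely.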

Key:
Experiment in all cases: growth of human tumour cells (NCI), 48 h
[1] = test system: 786-0 renal
[2] = test system: NCI-H522 lung
[3] = test system: MCF7 breast
[4] = test system: MDA-N
[5] = test system: HCT-15 colon
[6] = test system: RXF 393 renal
[7] = test system: SR leukemia
[8] = test system: HCT-116 colon
[9] = test system: SF-268 CNS
[10] = test system: OVCAR-5 ovarian
[11] = test system: HT29 colon
[12] = test system: BT-549 breast
[13] = test system: LOX IMVI melanoma
[14] = test system: KM12 colon
[15] = test system: RPMI-8226 leukemia
[16] = test system: M14 melanoma
[17] = test system: CCRF-CEM leukemia
[18] = test system: UACC-257 melanoma
[19] = test system: IGROV1 ovarian
[20] = test system: MOLT-4 leukemia
[21] = test system: MDA-MB-231 breast
[22] = test system: K-562 leukemia
[23] = test system: SK-MEL-28 melanoma
[24] = test system: DU-145 prostate
[25] = test system: NCI-H460 lung
[26] = test system: MALME-3M melanoma
[27] = test system: HOP-62 NSCLC
[28] = test system: A549 NSCLC
[29] = test system: SF-295 CNS
[30] = test system: SK-MEL-2 melanoma
[31] = test system: TK-10 renal
[32] = test system: EKVX NSCLC
[33] = test system: CAKI-1 renal
[34] = test system: PC-3 prostate
[35] = test system: OVCAR-4 ovarian
[36] = test system: HS 578T breast
[37] = test system: SN12C renal
[38] = test system: NCI-H23 lung
[39] = test system: NCI-H226 lung
[40] = test system: MDA-MB-435
[41] = test system: T-47D breast
[42] = test system: SNB-75 CNS
[43] = test system: SW-620 colon
[44] = test system: NCI/ADR-RES ovarian
[45] = test system: OVCAR-8 ovarian
[46] = test system: HOP-92 NSCLC
[47] = test system: SNB-19 CNS
[48] = test system: SK-MEL-5 melanoma
[49] = test system: U251 CNS
[50] = test system: UO-31 renal
[51] = test system: SK-OV-3 ovarian
[52] = test system: OVCAR-3 ovarian
[53] = test system: COLO 205 colon
[54] = test system: UACC-62 melanoma
[55] = test system: HCC-2998 colon
[56] = test system: ACHN renal
[57] = test system: A498 renal
[58] = test system: HL-60(TB) leukemia
[59] = test system: SF-539 CNS

SMILES: Cc1c(C)c(S(=O)(=O)N(CCCN)OCCCN)c(C)c2c1OC(C)(C)CC2
- TGI [1]: 29.4 µM
- TGI [2]: 28.4 µM
- TGI [3]: 29.1 µM
- TGI [4]: 29.2 µM
- TGI [5]: 29.3 µM
- TGI [6]: 21.4 µM
- TGI [7]: 33.4 µM
- TGI [8]: 30 µM
- TGI [9]: 26.9 µM
- TGI [10]: 25.8 µM
- TGI [11]: 28.4 µM
- TGI [12]: 31.4 µM
- TGI [13]: 26.1 µM
- TGI [14]: 25.6 µM
- TGI [15]: 35.7 µM
- TGI [16]: 27.7 µM
- TGI [17]: 27.6 µM
- TGI [18]: 27.3 µM
- TGI [19]: 20.3 µM
- TGI [20]: 14.9 µM
- TGI [21]: 17.6 µM
- TGI [22]: 29.6 µM
- TGI [23]: 28.5 µM
- TGI [24]: 29.5 µM
- TGI [25]: 30.3 µM
- TGI [26]: 27.8 µM
- TGI [27]: 27.2 µM
- TGI [28]: 29.6 µM
- TGI [29]: 30.4 µM
- TGI [30]: 32.1 µM
- TGI [31]: 28 µM
- TGI [32]: 30.4 µM
- TGI [33]: 30.1 µM
- TGI [34]: 24.5 µM
- TGI [35]: 23.6 µM
- TGI [36]: 29.6 µM
- TGI [37]: 28.4 µM
- TGI [38]: 27.9 µM
- TGI [39]: 28 µM
- TGI [40]: 29.6 µM
- TGI [41]: 33.5 µM
- TGI [42]: 23.4 µM
- TGI [43]: 29 µM
- TGI [44]: 60.1 µM
- TGI [45]: 29.8 µM
- TGI [46]: 19.9 µM
- TGI [47]: 24.9 µM
- TGI [48]: 29 µM
- TGI [49]: 24.1 µM
- TGI [50]: 31.5 µM
- TGI [51]: 29.8 µM
- TGI [52]: 29.5 µM
- TGI [53]: 32.1 µM
- TGI [54]: 28 µM
- TGI [55]: 21.2 µM
- TGI [56]: 29.6 µM
- TGI [57]: 26.2 µM

SMILES: Nc1ccc2nc3n(c2c1)C(c1c(F)cccc1F)SC3 (stereo unspecified)
- TGI [1]: > 100 µM
- TGI [2]: > 100 µM
- TGI [3]: > 100 µM
- TGI [4]: > 100 µM
- TGI [5]: > 100 µM
- TGI [6]: > 100 µM
- TGI [7]: > 100 µM
- TGI [8]: > 100 µM
- TGI [9]: > 100 µM
- TGI [10]: > 100 µM
- TGI [11]: > 100 µM
- TGI [12]: > 100 µM
- TGI [13]: > 100 µM
- TGI [14]: > 100 µM
- TGI [15]: > 100 µM
- TGI [16]: > 100 µM
- TGI [17]: > 100 µM
- TGI [18]: > 100 µM
- TGI [19]: > 100 µM
- TGI [20]: > 100 µM
- TGI [21]: > 100 µM
- TGI [22]: > 100 µM
- TGI [23]: > 100 µM
- TGI [24]: > 100 µM
- TGI [25]: > 100 µM
- TGI [26]: > 100 µM
- TGI [27]: > 100 µM
- TGI [28]: > 100 µM
- TGI [29]: > 100 µM
- TGI [30]: > 100 µM
- TGI [31]: > 100 µM
- TGI [32]: > 100 µM
- TGI [33]: > 100 µM
- TGI [34]: > 100 µM
- TGI [35]: > 100 µM
- TGI [36]: > 100 µM
- TGI [37]: > 100 µM
- TGI [38]: > 100 µM
- TGI [40]: > 100 µM
- TGI [41]: > 100 µM
- TGI [42]: > 100 µM
- TGI [58]: > 100 µM
- TGI [43]: > 100 µM
- TGI [44]: > 100 µM
- TGI [45]: > 100 µM
- TGI [47]: > 100 µM
- TGI [48]: > 100 µM
- TGI [49]: > 100 µM
- TGI [50]: > 100 µM
- TGI [51]: > 100 µM
- TGI [52]: > 100 µM
- TGI [53]: > 100 µM
- TGI [54]: > 100 µM
- TGI [55]: > 100 µM
- TGI [59]: > 100 µM
- TGI [56]: > 100 µM
- TGI [57]: > 100 µM

SMILES: Fc1ccccc1-c1cc(=S)c2cc3c(cc2[nH]1)OCO3
- TGI [1]: > 100 µM
- TGI [2]: 57 µM
- TGI [3]: > 100 µM
- TGI [4]: > 26.7 µM
- TGI [5]: > 100 µM
- TGI [6]: > 100 µM
- TGI [7]: > 100 µM
- TGI [8]: > 100 µM
- TGI [9]: > 100 µM
- TGI [10]: > 100 µM
- TGI [11]: 40.2 µM
- TGI [12]: > 100 µM
- TGI [13]: > 100 µM
- TGI [14]: > 100 µM
- TGI [15]: > 70 µM
- TGI [16]: > 100 µM
- TGI [17]: > 100 µM
- TGI [18]: > 100 µM
- TGI [19]: > 100 µM
- TGI [20]: > 25.1 µM
- TGI [21]: > 100 µM
- TGI [22]: > 100 µM
- TGI [23]: > 100 µM
- TGI [24]: > 100 µM
- TGI [25]: > 100 µM
- TGI [26]: > 100 µM
- TGI [27]: > 100 µM
- TGI [28]: > 100 µM
- TGI [29]: > 100 µM
- TGI [30]: > 76.7 µM
- TGI [31]: > 100 µM
- TGI [32]: > 100 µM
- TGI [33]: > 100 µM
- TGI [34]: > 80.2 µM
- TGI [35]: > 100 µM
- TGI [36]: > 100 µM
- TGI [37]: > 100 µM
- TGI [38]: > 100 µM
- TGI [39]: > 100 µM
- TGI [40]: > 23.6 µM
- TGI [41]: > 100 µM
- TGI [43]: > 100 µM
- TGI [44]: 63.2 µM
- TGI [45]: > 100 µM
- TGI [46]: > 100 µM
- TGI [47]: 98.1 µM
- TGI [48]: > 30.7 µM
- TGI [49]: > 100 µM
- TGI [50]: > 100 µM
- TGI [51]: > 100 µM
- TGI [52]: > 100 µM
- TGI [53]: > 89 µM
- TGI [54]: > 30 µM
- TGI [55]: > 45.5 µM
- TGI [59]: > 89 µM
- TGI [56]: > 100 µM
- TGI [57]: > 100 µM

SMILES: COc1ccc(CC2Cc3ccccc3CC(=O)N2)cc1OC (stereo unspecified)
- TGI [1]: > 100 µM
- TGI [3]: > 100 µM
- TGI [4]: > 100 µM
- TGI [5]: > 100 µM
- TGI [7]: > 100 µM
- TGI [8]: > 100 µM
- TGI [10]: > 100 µM
- TGI [11]: > 100 µM
- TGI [12]: > 100 µM
- TGI [13]: > 100 µM
- TGI [14]: > 100 µM
- TGI [16]: > 100 µM
- TGI [17]: > 100 µM
- TGI [18]: > 100 µM
- TGI [19]: > 100 µM
- TGI [20]: 65 µM
- TGI [21]: > 100 µM
- TGI [22]: > 100 µM
- TGI [23]: > 100 µM
- TGI [24]: > 100 µM
- TGI [25]: > 100 µM
- TGI [26]: > 100 µM
- TGI [27]: > 100 µM
- TGI [28]: > 100 µM
- TGI [29]: > 100 µM
- TGI [30]: > 100 µM
- TGI [31]: > 100 µM
- TGI [32]: > 100 µM
- TGI [33]: > 100 µM
- TGI [34]: > 100 µM
- TGI [35]: > 100 µM
- TGI [36]: > 100 µM
- TGI [37]: > 100 µM
- TGI [38]: > 100 µM
- TGI [39]: > 100 µM
- TGI [40]: > 100 µM
- TGI [41]: 58.5 µM
- TGI [42]: > 100 µM
- TGI [58]: > 100 µM
- TGI [43]: > 100 µM
- TGI [44]: > 100 µM
- TGI [45]: > 100 µM
- TGI [46]: > 100 µM
- TGI [47]: > 100 µM
- TGI [48]: 54.1 µM
- TGI [49]: > 100 µM
- TGI [50]: > 100 µM
- TGI [51]: > 100 µM
- TGI [52]: > 100 µM
- TGI [53]: > 100 µM
- TGI [54]: > 100 µM
- TGI [55]: > 100 µM
- TGI [59]: > 100 µM
- TGI [56]: > 100 µM
- TGI [57]: > 100 µM
